Results reported in patent US20250115874A1, “Compositions And Methods For Making And Using Atherosclerotic Nanomatrix Vascular Sheets” (UAB RESEARCH FOUNDATION, priority 2023, published 2025).

Experiments:
Type in all cases: cell-based, human
[1] = test system: foam cell formation on the VSA; assay: VSA foam cell assay (BODIPY staining); conditions: for foam cell formation (BODIPY): day 10, vs. control 100%; for foam cell generation (BODIPY): day 10, vs. control
Protocol: Experimental: (1) Fabrication of large-scale VSA high throughput culture systems: Individual VSAs were fabricated in each well of a 48-well tissue culture plate, following the method described in Example 4 (FIG. 7A, step 1), to create a high throughput culture system for testing drug effects on atherosclerosis. (2) The VSAs were divided into two groups: treated and untreated. (3) The treated group was treated with rosuvastatin (10 uM) or sirolimus (10 nM) by dilution of the stock solution into the “culture medium 7” on day 0 (FIG. 7B, step 2). (4) The VSAs, both treated and untreated, were co-cultured for 10 days with a fresh culture medium 7 with monocytes added on day 3 and day 7, respectively. (5) BODIPY staining was used to quantify foam cell formation: On day 10, a 10 mM BODIPY stock solution was prepared by dissolving in DMSO and stored at −20° C. Before the experiment, a 100 times diluted working solution was prepared from the stock solution using PBS. The VSAs were gently washed with PBS, then BODIPY was added, incubated in the dark for 30 min, imaged immediately using a microscope, and quantified at ex/em 485 nm/520 nm.
Experimental: (1) Fabrication of VSA high throughput culture systems: the large-scale VSA high throughput culture system was achieved by fabricating individual VSAs in each well of the 48-well tissue culture plate, following the same method described in Example 4 (FIG. 7A, step 1). (2) Divide the VSAs into two groups. (3) Treatment of VSAs in one group with curcumin (200 uM) or colchicine (100 nM) by dilution of the stock solution into the “culture medium 7” containing monocytes on day 0 (FIG. 7B, step 2). (4) The VSAs, treated or untreated, were co-cultured for 10 days. A fresh culture medium 7 was added to the co-culture system on day 3 and day 7, respectively. (5) BODIPY staining: On day 10, 10 mM BODIPY stock solution was prepared by dissolving in DMSO and stored at −20° C. Before the experiment, 100 times diluted working solution was prepared from stock solution using PBS. Then, the VSAs treated or untreated with curcumin (200 uM), and colchicine (100 nM) were gently washed with PBS, then BODIPY was added and incubated in the dark.
Experimental: (1) Fabrication of VSA high throughput culture systems: the large-scale VSA high throughput culture system was achieved by fabricating individual VSAs in each well of the 48-well tissue culture plate, following the same method described in Example 4 (FIG. 7A, step 1). (2) Divide the VSAs into two groups. (3) Treatment of VSAs in one group with free miR-146a (600 nM) by dilution of the stock solution into the culture medium 7 on day 0 (FIG. 7B, step 2). (4) The VSAs, treated or untreated, were co-cultured for 10 days. […]

[2] = test system: cytokine secretion of VSAs; assay: VSA cytokine assay (ELISA of supernatant)
[3] = test system: atherosclerosis-related gene expression of VSAs; assay: VSA gene assay (qRT-PCR)
Protocol: Experimental: To create a large-scale VSA high throughput culture system, individual VSAs were fabricated in each well of a 48-well tissue culture plate using the method described in Example 4 (FIG. 7A, step 1). The VSAs were then divided into two groups. One group was treated with rosuvastatin (10 uM) and sirolimus (10 nM) by diluting the stock solution into the “culture medium 7” containing monocytes on day 0 (FIG. 7B, step 2). The treated and untreated VSAs were co-cultured for 10 days with fresh culture medium 7 with monocytes added on day 3 and day 7, respectively. On day 10, RNA was extracted using the TRIzol™ reagent (Invitrogen) and purified using the Direct-Zol™ RNA Miniprep Plus kit following the protocol (Zymo Research). EDTA was added before phase separation to bind the calcium and help disintegrate the nanomatrix VSAs. The upper transparent aqueous phase was collected and RNA was suspended in nuclease-free water. The concentration and purity of RNA for each sample were determined using an ND-1000 UV spectrophotometer (Nanodrop). Complementary DNA was synthesized using 50 ng of RNA and reverse transcribed in a 2720 Thermo Cycler (Applied Biosystems) using a Verso cDNA Synthesis Kit (Thermo Fisher) according to the manufacturer's protocol. Samples were prepared in a 96-well PCR plate using the TaqMan Master Mix protocol. Each sample consisted of 2 μL of cDNA solution, 10 μL of 2× master mix, 7 μL of RNA-free water, and 1 μL of gene primer from a TaqMan Gene Expression Assay kit (Applied Biosytems). The PCR plate was run in a LightCycler 480 (Roche Life Science) for the following cycles: pre-incubation at 50° C. for 2 minutes and 95° C. for 10 min; amplification for 45 cycles, at 95° C. for 15 seconds, and 60° C. for 1 minute during each cycle; melting at 95° C. for 5 seconds and 65° C. for 1 minute, and cooling at 40° C. for 30 seconds.
Experimental: (1) Fabrication of VSA high throughput culture systems: the large-scale VSA high throughput culture system was achieved by fabricating individual VSAs in each well of the 48-well tissue culture plate, following the same method described in Example 4 (FIG. 7A, step 1). (2) Divide the VSAs into two groups. (3) Treatment of VSAs in one group with curcumin (200 uM) or colchicine (100 nM) by dilution of the stock solution into the “culture medium 7” containing monocytes on day 0 (FIG. 7B, step 2). (4) The VSAs, treated or untreated, were co-cultured for 10 days. A fresh culture medium 7 with monocytes was added to the co-culture system on day 3 and day 7, respectively. (5) RNA extraction and real-time qRT-PCR: On day 10, before phase separation, EDTA (Ethylenediaminetetraacetic acid) was added to bind the calcium and help disintegrate the nanomatrix VSAs. For phase separation, TRIzol™ reagent was added to the samples (>9 times of the sample volume) and incubated for 5 min. Then chloroform was added, mixed by shaking, and centrifuged (11,600 g, 15 min, 4° C.) to obtain phase separation. The upper transparent aqueous phase was collected and purified using the Direct-Zol™ RNA Miniprep Plus kit following the protocol. RNA was suspended in nuclease-free water, and an ND-1000 UV spectrophotometer was used to quantify the concentration and purity of RNA for each sample. Complementary DNA was then synthesized using 50 ng of RNA, which was reverse transcribed in a 2720 Thermo Cycler (Applied Biosystems) using a Verso cDNA Synthesis Kit according to the manufacturer's protocol. Samples were prepared in a 96-well PCR plate using the TaqMan Master Mix protocol. Each sample consisted of 2 μL of cDNA solution, 10 μL of 2× master mix, 7 μL of RNA-free water, and 1 μL of gene primer from a TaqMan Gene Expression Assay kit. […]

[4] = test system: cytokine secretion of VSAs; assay: VSA cytokine assay (ELISA of supernatant); remark: listed apart in the source
Protocol: (§1) Experimental: (1) Fabrication of VSA high throughput culture systems: large-scale VSA high throughput culture systems were achieved by fabricating individual VSAs in each well of the 48-well tissue culture plate, following the same method described in Example 4 (FIG. 7A, step 1). (2) Divide the VSAs into two groups. (3) Treatment of VSAs in one group with rosuvastatin (10 uM) or sirolimus (10 nM) by dilution of the stock solution into the culture medium 7 on day 0 (FIG. 7B, step 2). (4) The VSAs, treated or untreated, were culturing in culture medium 7 for 10 days. A fresh culture medium 7 was added to the co-culture system on day 3 and day 7, respectively. (5) ELISA: On day 10, the supernatant from VSAs was collected for ELISA to measure the significant inflammatory cytokine secretion.
as §1, with “systems: the” for “systems:”, “system was” for “systems were”, “curcumin (200” for “rosuvastatin (10”, “colchicine (100” for “sirolimus (10”, “cultured using” for “culturing in”, “measure” for “measure the significant”
as §1, with “systems: the” for “systems:”, “system was” for “systems were”, “free miR-146a (600 nM)” for “rosuvastatin (10 uM)”, “Lip-miR-146a (600” for “sirolimus (10”, “co-cultured” for “culturing in culture medium 7”, “Afresh” for “A fresh”

[5] = sirolimus 10 nM, day 10, of the control group
[6] = sirolimus 10 nM, day 10, relative to the control
[7] = rosuvastatin 10 uM, day 10, compared to the control
[8] = rosuvastatin 10 uM, day 10, vs. control
[9] = colchicine 100 nM, day 10, vs. control
[10] = curcumin 200 uM, day 10, vs. control

CO[C@H]1C[C@@H]2CC[C@@H](C)[C@@](O)(O2)C(=O)C(=O)N2CCCC[C@H]2C(=O)O[C@H]([C@H](C)C[C@@H]2CC[C@@H](O)[C@H](OC)C2)CC(=O)[C@H](C)/C=C(\C)[C@@H](O)[C@@H](OC)C(=O)[C@H](C)C[C@H](C)/C=C/C=C/C=C/1C [sirolimus]
foam cell formation (BODIPY) ([1]; sirolimus 10 nM): 42.73±10.62%
IFN-γ production [2, 5]: 43.64±17.04%
MCP-1 production [2, 5]: 22.76±2.56%
TNF-α production [2, 5]: 40.67±6.42%
IL-4 secretion [2, 6]: 6.42±3.59 fold
IL-13 secretion [2, 6]: 1.67±0.59 fold

CC(C)c1nc(N(C)S(C)(=O)=O)nc(-c2ccc(F)cc2)c1/C=C/[C@@H](O)C[C@@H](O)CC(=O)O [rosuvastatin]
foam cell formation (BODIPY) ([1]; rosuvastatin 10 uM): 50.77±8.32%
MMP-2 gene expression [3, 7]: 4.46±1.75%
VEGF-A gene expression [3, 7]: significantly lower
IL-6 gene expression ([3]; rosuvastatin 10 uM, day 10, of control): 5.20±0.38%
COL17A1 gene expression [3, 8]: 127.03±35.49 fold
PECAM-1 gene expression [3, 8]: 146.76±44.63 fold
IFN-γ production [4, 8]: 44.03±3.20%
IL-1α production [4, 8]: 66.78±6.52%
IL-6 production [4, 8]: 71.50±4.34%
TNF-α production [4, 8]: 39.69±5.53%
IL-10 secretion ([2]; rosuvastatin 10 uM, day 10, compared with the control): 2.10±0.50 fold
IL-8 production [2, 8]: 48.64±6.17%

COc1cc2c(c(OC)c1OC)-c1ccc(OC)c(=O)cc1[C@@H](NC(C)=O)CC2 [colchicine]
foam cell generation (BODIPY) ([1]; colchicine 100 nM): 50.86±4.57%
COL3A1 gene expression [3, 9]: 8.93±1.30%
MMP-2 gene expression [3, 9]: 6.36±1.44%
PECAM-1 gene expression [3, 9]: 3.35±0.68 fold
IL-1α production ([4]; colchicine 100 nM, day 10): 71.31±5.84%
IL-4 production [4, 9]: 1.39±0.14 fold
IL-8 production [4, 9]: 42.57±1.80%
IFN-γ production [2, 9]: 61.95±7.79%
MCP-1 production [2, 9]: 26.31±1.77%
TNF-α production [2, 9]: 53.16±7.92%

COc1cc(/C=C/C(=O)CC(=O)/C=C/c2ccc(O)c(OC)c2)ccc1O [curcumin]
foam cell generation (BODIPY) ([1]; curcumin 200 uM): 31.23±5.68%
MMP-2 gene expression [3, 10]: 39.22±7.14%
PECAM-1 gene expression [3, 10]: 29.71±5.68%
VEGF-A gene expression [3, 10]: 38.01±5.68%
IL-1α production [4, 10]: 80.58±4.91%
IL-10 production [4, 10]: 2.10±0.29 fold
IL-8 production [2, 10]: 40.90±5.72%
MCP-1 production [2, 10]: 76.87±3.35%
